{"source": "patent EP0664802B1", "about": "“N-ARYLHETEROARYLALKYL 1-PHENYL-IMIDAZOL-2-ONE COMPOUNDS FOR TREATMENT OF CIRCULATORY DISORDERS” (G.D. SEARLE & CO., priority 1992, dated 1994)", "key": {"pressor response to AII": {"tested_on": "pressor response to AII", "test": "Assay C: In Vivo Intragastric Pressor Assay Response for AII antagonists", "set-up": "species or system Sprague-Dawley rats", "conditions": "Dose: 3 mg/kg (i.g.); for Assay C Duration: AII challenges up to 180 minutes after gavage; for Assay C Inhibition (%): inhibition of pressor response to 30 ng/kg AII bolus, conscious rats", "experimental": "Assay C: In Vivo Intragastric Pressor Assay Response for All Antagonists\nMale Sprague-Dawley rats weighing 225-300 grams were anesthetized with methohexital (30 mg/kg, i.p.) and catheters were implanted into the femoral artery and vein. The catheters were tunneled subcutaneously to exit dorsally, posterior to the head and between the scapulae. The catheters were filled with heparin (1000 units/ml of saline). The rats were returned to their cage and allowed regular rat chow and water ad libitum. After full recovery from surgery (3-4 days), rats were placed in Lucite holders and the arterial line was connected to a pressure transducer. Arterial pressure was recorded on a Gould polygraph (mmHg). Angiotensin II was administered as a 30 ng/kg bolus via the venous catheter delivered in a 50 µl volume with a 0.2 ml saline flush. The pressor response in mm Hg was measured by the difference from pre-injection arterial pressure to the maximum pressure achieved. The AII injection was repeated every 10 minutes until three consecutive injections yielded responses within 4 mmHg of each other. These three responses were then averaged and represented the control response to AII. The test compound was suspended in 0.5% methylcellulose in water and was administered by gavage. The volume administered was 2 ml/kg body weight. The standard dose was 3 mg/kg. Angiotensin II bolus injections were given at 30, 45, 60, 75, 120, 150, and 180 minutes after gavage. The pressor response to AII was measured at each time point. The rats were then returned to their cage for future testing. A minimum of 3 days was allowed between tests. Percent inhibition was calculated for each time point following gavage by the following formula: [(Control Response - Response at time point)/Control Response] X 100 [formula] ."}, "rabbit aortic rings": {"tested_on": "rabbit aortic rings", "test": "Assay B: In Vitro Vascular Smooth Muscle Response for AII (antagonist activity, isometric force)", "format": "cell-based", "conditions": "antagonist at 10^-5 M, 5 min before AII challenge; Schild; aorta rings from two rabbits (two values per cell)", "experimental": "Assay B: In Vitro Vascular Smooth Muscle-Response for AII\nThe compounds of the invention were tested for antagonist activity in rabbit aortic rings. Male New Zealand white rabbits (2-2.5 kg) were sacrificed using an overdose of pentobarbital and exsanguinated via the carotid arteries. The thoracic aorta was removed, cleaned of adherent fat and connective tissue and then cut into 3-mm ring segments. The endothelium was removed from the rings by gently sliding a rolled-up piece of filter paper into the vessel lumen. The rings were then mounted in a water-jacketed tissue bath, maintained at 37°C, between moveable and fixed ends of a stainless steel wire with the moveable end attached to an FT03 Grass transducer coupled to a Model 7D Grass Polygraph for recording isometric force responses. The bath was filled with 20 ml of oxygenated (95% oxygen/5% carbon dioxide) Krebs solution of the following composition (mM): 130 NaCl, 15 NaHC03, 15 KCl, 1.2 NaH2P04, 1.2 MgS04, 2.5 CaC12, and 11.4 glucose. The preparations were equilibrated for one hour before approximately one gram of passive tension was placed on the rings. Angiotensin II concentration-response curves were then recorded (3 X 10^-10 to 1 x 10^-5 M). Each concentration of AII was allowed to elicit its maximal contraction, and then AII was washed out repeatedly for 30 minutes before rechallenging with a higher concentration of AII. Aorta rings were exposed to the test antagonist at 10^-5 M for 5 minutes before challenging with AII. Adjacent segments of the same aorta ring were used for all concentration-response curves in the presence or absence of the test antagonist. The effectiveness of the test compound was expressed in terms of pA2 values and were calculated according to H.O. Schild [Br. J. Pharmacol. Chemother., 2,189-206 (1947)]. The pA2 value is […] of the antagonist which increases the EC50 value for AII by a factor of two. Each test antagonist was evaluated in aorta rings from two rabbits."}}, "note": "Values joined by “and” are separate entries in the source; they are usually repeats but may differ in a detail not shown here. Equal entries are not always repeated."}
{"smiles": "CCCCc1cn(-c2ccccc2CC)c(=O)n1Cc1ccc(-c2ccccc2-c2nnn[nH]2)nc1", "note": "[Example 1, 1-(2-ethylphenyl)-4-butyl-1,3-dihydro-3-[[6-[2-(1H-tetrazol-5-yl)phenyl]-3-pyridinyl]methyl]-2H-imidazol-2-one]", "values": [{"measurement": "Assay C Duration", "setting": "pressor response to AII", "result": ">180", "unit": "min"}, {"measurement": "Assay C Inhibition (%)", "setting": "pressor response to AII", "result": 80, "unit": "%"}]}
{"smiles": "CCCCc1cn(-c2ccccc2C(C)(C)C)c(=O)n1Cc1ccc(-c2ccccc2-c2nnn[nH]2)nc1", "note": "[Example 2, 1-(2-tertbutylphenyl)-4-butyl-1,3-dihydro-3-[[6-[2-(1H-tetrazol-5-yl)phenyl]-3-pyridinyl]methyl]-2H-imidazol-2-one]", "values": [{"measurement": "Assay C Duration", "setting": "pressor response to AII", "result": ">180", "unit": "min"}, {"measurement": "Assay C Inhibition (%)", "setting": "pressor response to AII", "result": 40, "unit": "%"}]}
{"smiles": "CCCCc1cn(-c2c(OC)cccc2OC)c(=O)n1Cc1ccc(-c2ccccc2-c2nnn[nH]2)nc1", "note": "[Example 3, 1-(2,6-dimethoxyphenyl)-4-butyl-1,3-dihydro-3-[[6-[2-(1H-tetrazol-5-yl)phenyl]-3-pyridinyl]methyl]-2H-imidazol-2-one]", "values": [{"measurement": "Assay C Duration", "setting": "pressor response to AII", "result": ">180", "unit": "min"}, {"measurement": "Assay C Inhibition (%)", "setting": "pressor response to AII", "result": 25, "unit": "%"}]}
{"smiles": "CCCCc1cn(-c2c(C)cccc2Cl)c(=O)n1Cc1ccc(-c2ccccc2-c2nnn[nH]2)nc1", "note": "[Example 4, 1-(2-chloro-6-methylphenyl)-4-butyl-1,3-dihydro-3-[[6-[2-(1H-tetrazol-5-yl)phenyl]-3-pyridinyl]methyl]-2H-imidazol-2-one]", "values": [{"measurement": "Assay C Duration", "setting": "pressor response to AII", "result": ">180", "unit": "min"}, {"measurement": "Assay C Inhibition (%)", "setting": "pressor response to AII", "result": 75, "unit": "%"}]}
{"smiles": "CCCCc1cn(-c2c(C)cc(C)cc2C)c(=O)n1Cc1ccc(-c2ccccc2-c2nnn[nH]2)nc1", "note": "[Example 5, 1-(2,4,6-trimethylphenyl)-4-butyl-1,3-dihydro-3-[[6-[2-(1H-tetrazol-5-yl)phenyl]-3-pyridinyl]methyl]-2H-imidazol-2-one]", "values": [{"measurement": "Assay B pA2", "setting": "rabbit aortic rings", "result": "8.59 and 8.89"}, {"measurement": "Assay C Duration", "setting": "pressor response to AII", "result": ">180", "unit": "min"}, {"measurement": "Assay C Inhibition (%)", "setting": "pressor response to AII", "result": 70, "unit": "%"}]}
{"smiles": "CCCCc1cn(-c2c(C)cc(C(C)(C)C)cc2C)c(=O)n1Cc1ccc(-c2ccccc2-c2nnn[nH]2)nc1", "note": "[Example 6, 1-(2,6-dimethyl-4-tertbutylphenyl)-4-butyl-1,3-dihydro-3-[[6-[2-(1H-tetrazol-5-yl)phenyl]-3-pyridinyl]methyl]-2H-imidazol-2-one]", "values": [{"measurement": "Assay B pA2", "setting": "rabbit aortic rings", "result": "8.51 and 8.78"}]}
{"smiles": "CCCCc1cn(-c2c(CC)cccc2CC)c(=O)n1Cc1ccc(-c2ccccc2-c2nnn[nH]2)nc1", "note": "[Example 7, 1-(2,6-diethylphenyl)-4-butyl-1,3-dihydro-3-[[6-[2-(1H-tetrazol-5-yl)phenyl]-3-pyridinyl]methyl]-2H-imidazol-2-one]", "values": [{"measurement": "Assay C Inhibition (%)", "setting": "pressor response to AII", "result": 20, "unit": "%"}]}
{"smiles": "CCCCc1cn(-c2c(C(C)C)cccc2C(C)C)c(=O)n1Cc1ccc(-c2ccccc2-c2nnn[nH]2)nc1", "note": "[Example 8, 1-(2,6-diisopropylphenyl)-4-butyl-1,3-dihydro-3-[[6-[2-(1H-tetrazol-5-yl)phenyl]-3-pyridinyl]methyl]-2H-imidazol-2-one]", "values": [{"measurement": "Assay B pA2", "setting": "rabbit aortic rings", "result": "7.14 and 7.07"}]}
